ChEMBL document CHEMBL1157539, “Thousands of chemical starting points for antimalarial lead identification” (Nature, 2010)

test system: Plasmodium falciparum; assay: GSK_TCMDC: Inhibition of Plasmodium falciparum 3D7 in whole erythrocytes, using parasite LDH activity as an index of growth.; format: functional, organism-based; conditions: Plasmodium falciparum, 3D7

SMILES	XC50
CS(=O)(=O)CCOCc1ccc(-c2ccc3ncnc(Nc4ccc(OCc5cccc(F)c5)c(Cl)c4)c3c2)o1	803 nM
Cc1ccc(CNc2cc(C(F)(F)F)nc(-c3ccc(S(C)(=O)=O)cc3)n2)cc1	498 nM
CN1CC=C(c2c[nH]c3ccc(Br)cc23)CC1	1190 nM
CS(=O)(=O)CCNCc1ccc(-c2cc3c(Nc4ccc(OCc5cccc(F)c5)c(Cl)c4)ncnc3s2)[nH]1	844 nM
OC1CCCN(Cc2ccc(-c3cccc(-c4nc5ccccc5[nH]4)c3)cc2)C1 (stereo unspecified)	1340 nM
CC(C)(C)n1nnnc1C(c1cccnc1)N(Cc1ccccc1)Cc1ccc(Cl)cc1 (stereo unspecified)	744 nM
CN1CCN(c2ccc3[nH]c(-c4ccc5[nH]c(-c6ccc(O)cc6)nc5c4)nc3c2)CC1	121 nM
Cc1cc(NCCc2ccc(O)cc2)nc(NCC(c2ccccc2)c2ccccc2)n1	320 nM
CC(N)(Cc1ccc(O)cc1)c1nnn[nH]1 (stereo unspecified)	969 nM
CCOc1ccc(Nc2cc(C)nc(Nc3ccc(OCC)cc3)n2)cc1	869 nM
COc1ccc(-n2ccnc2SCC(=O)Nc2cc(C(F)(F)F)ccc2Cl)c(OC)c1	35 nM
O=C(NC1CC1)c1ccc(N2CCC(COc3cccc(F)c3)CC2)nc1	1240 nM
C[C@H](NC(=O)c1c(CN2CCC(N3CCCCC3)CC2)c(-c2ccccc2)nc2cc(O)ccc12)C1CCCCC1	759 nM
CCN(CC)/C(=N\C(=N)NCCCCCCNC(=N)/N=C(\Nc1ccc(Cl)cc1)N(CC)CC)Nc1ccc(Cl)cc1	927 nM
c1cnc2ccc(NCc3ccc(-c4ccc(CNC5CCCC5)cc4)cc3)cc2c1	874 nM
Cc1ccc(CNC(=O)[C@H](CC(C)C)Nc2cc(C)nc(Nc3ccccc3)n2)cc1	1770 nM
O=C(Nc1ccccc1)c1c[nH]cn1	991 nM
Nc1c(Cl)cc(C(O)CNCCCCCOCCc2ccccc2)cc1C(F)(F)F (stereo unspecified)	978 nM
COc1ccccc1C(=O)N1CCN(Cc2cccs2)CC1	869 nM
Oc1ccccc1CNCC(O)c1cc(C(F)(F)F)cc(C(F)(F)F)c1 (stereo unspecified)	184 nM
O=C(NC1CCC(N2CCC(c3nc4ccccc4s3)CC2)CC1)c1cc2ccccc2[nH]1 (stereo unspecified)	926 nM
COc1ccc(NC(=O)Nc2ccc(Nc3nc(C)cc(N4CCCC4)n3)cc2)cc1	135 nM
CCc1cc(NC(=O)Nc2ccnc3ccccc23)ccc1OC	138 nM
CC(Sc1nc2sccc2c(=O)n1C)C(=O)Nc1ccc2c(c1)OCO2 (stereo unspecified)	1040 nM

SMILES	XC50
O=C(/C=C/c1ccc(Cl)c(Cl)c1)NCCCCCN1CCC(NC(=O)c2cc(Cl)ccc2F)CC1	1160 nM
CC(Cc1ccc(CSC(C)C)cc1)NCC(O)c1cccc(Cl)c1 (stereo unspecified)	603 nM
Cc1[nH]c(C)c(-c2ccc(OCc3cc(F)cc(F)c3)nc2)c(=O)c1Br	103 nM
CC(Cc1ccc(Cl)cc1)Nc1nc(NC2CCCC2)nc(N2CCC(C#N)(c3ccccc3)CC2)n1 (stereo unspecified)	715 nM
CNC(=O)c1ccc2[nH]cc(C3CCN(CC4CCC(NC(=O)/C=C/c5ccc(Cl)c(Cl)c5)CC4)CC3)c2c1 (stereo unspecified)	1010 nM
CC1CCN(C(=O)[C@H](Cc2c[nH]c3ccccc23)NS(=O)(=O)c2ccc(Cl)cc2)CC1	667 nM
O=C(NCc1cccc(F)c1)Nc1ccc(-c2cccc(-c3nc4cc(F)ccc4[nH]3)c2)cc1	772 nM
O=C(Nc1cccc(-c2ccc(CN3CCC(O)CC3)cc2)c1)c1ccc(Cl)cc1	961 nM
Oc1ccc(CCNc2nc(NCc3ccccc3Oc3ccc(C(F)(F)F)cc3)nc(N3CCNCC3)n2)cc1	1160 nM
COc1ccc(NC(=O)NC2CCN(CCCOc3cc(C)nc4ccccc34)CC2)cc1OC	1280 nM
CC(C)CN1CCCN(Cc2cccc(NC(=O)c3cc4ccccc4s3)c2)CC1	1770 nM
CN(C)CCN1CCN(Cc2cccc(-c3csc(-c4nc5ccccc5[nH]4)c3)c2)CC1	398 nM
COC(=O)C(C)NCC(=O)c1ccccc1 (stereo unspecified)	115 nM
C=C[C@H]1CN(CCCCCCC)CC[C@H]1CC(O)Cc1ccnc2cc(O)c(OC)cc12 (stereo partly specified)	818 nM
O=C(N1CCN(c2ccc(C(F)(F)F)cc2[N+](=O)[O-])CC1)C(Cl)(Cl)Cl	713 nM
N#C/N=C(\NCCCCCCCCN/C(=N\C#N)NCCSCc1csc(N=C(N)N)n1)NCCCSc1csc(N=C(N)N)n1	844 nM
CN(C(=O)C(C)(C)Oc1ccc(Cl)cc1)C1CCN(CCCCCNC(=O)/C=C/c2ccc(Cl)c(Cl)c2)CC1	916 nM
COc1cc(Cc2cnc(N)nc2N)cc(OCCn2ccccc2=O)c1OC	773 nM
c1ccc(OCCCCN2CCCCC2)cc1	537 nM
O=C(NCCCCCN1CCC(c2c[nH]c3ccccc23)C1)Nc1ccc(Cl)c(Cl)c1 (stereo unspecified)	811 nM
O=C(NCC1COc2ccccc2O1)c1cnc2c(c1)nc(-c1c[nH]c(-c3ccccc3)n1)n2CCSCc1c(F)cccc1Cl (stereo unspecified)	959 nM
Cc1ccccc1C1CCN(C2CCC(NC(=O)/C=C/c3cccc(F)c3)CC2)CC1 (stereo unspecified)	1190 nM
N=C(N)Nc1nc(-c2cccc(NC(=O)NCc3ccc(OC(F)(F)F)cc3)c2)cs1	703 nM
CC(=O)Nc1cc(C(=O)Nc2cccc(-c3cccc(-c4nc5cccc(C)c5[nH]4)c3)c2)ccc1C	329 nM

SMILES	XC50
O=C(NCCCN1CCC(N2CCCCC2)CC1)C1=Cc2cc(Br)ccc2OC1	853 nM
Cc1cccc(C)c1CNc1ccnc2ccccc12	1200 nM
COc1ccc2nccc([C@@H](O)CN3CCC(NCc4ccc5c(c4)NC(=O)C(C)S5)CC3)c2c1 (stereo partly specified)	200 nM
O=C(/C=C/c1ccc(Cl)c(Cl)c1)NCCCCCN1CCC(NC(=O)Nc2ccc(Cl)cc2F)CC1	313 nM
c1ccc(COc2ccnc(NCCCOc3cccc(CN4CCCCC4)c3)c2)cc1	994 nM
CN(C)c1ccc(-c2csc(C(=O)NCC3CCN(Cc4cccc(C(F)(F)F)c4)C3)c2)cc1 (stereo unspecified)	843 nM
COC(=O)c1ccc(NC(=O)c2ccc(CCN3CCC(c4nc(COCC(F)(F)F)c(-c5ccc(F)cc5)o4)CC3)cc2)cc1	1040 nM
O=C(Nc1ccc(OC2CCN(Cc3ccc(F)cc3)C2)c(Cl)c1)c1ccc(F)cc1 (stereo unspecified)	490 nM
Cc1ccc(-n2c(=O)c3cccnc3n2CC(=O)Nc2cccc(C)c2C)cc1	865 nM
Cc1nc(NCc2ccccc2)cc(Nc2cc(NCc3ccccc3)nc(C)n2)n1	971 nM
Cc1nc2ccc(F)cc2n1C1CCN(C(=O)Cc2ccc(F)c(F)c2)CC1	1410 nM
CN(C)Cc1cccc2nc(-c3csc(Cc4cc(Cl)ccc4OCc4ccccc4)n3)[nH]c12	1120 nM
COc1cc2nc(N3CCC(CNC(=O)c4ccc(-c5ccc(C(F)(F)F)cc5)cc4)CC3)nc(N)c2cc1OC	127 nM
CCOc1ccc(C(C)NC(=O)Cc2ccccc2F)cc1OCC (stereo unspecified)	844 nM
CCc1ccccc1N1CCN(CCCC(=O)c2ccc(NC(=O)c3ccc(Cl)cc3)cc2)CC1	1310 nM
COc1cc2nc(N3CCN(C(=O)c4c(Cl)nsc4-c4ccccc4Cl)CC3)nc(N)c2cc1OC	534 nM
N=C(N)c1cc(Br)cc(NC(=O)Nc2cc(Br)cc(C(=N)N)c2)c1	819 nM
CC(C)c1ccc(S(=O)(=O)Nc2cccc(CCN3CCC(N4CCCCC4)CC3)c2)cc1	1120 nM
O=C(N1CCN(c2ccnc3cc4c(cc23)N(Cc2ccccc2)CC4)CC1)C(F)(F)F	257 nM
NC(=O)c1ccccc1OCC(=O)Nc1cccc(-c2cccc(-c3nc4ccccc4[nH]3)c2)c1	376 nM
NCc1cccc(-c2cccc(CN(C(=O)Nc3ccccc3)C3CCN(Cc4ccccc4)CC3)c2)c1	829 nM
CC(C)Cn1c(Sc2ccc(C#N)c([N+](=O)[O-])c2)nnc1-c1ccccc1	1090 nM
Nc1cccc(CNCc2ccc(-c3cccc(-c4nc5cc(F)ccc5[nH]4)c3)cc2)c1	213 nM
CCOc1cc(Cc2cnc(N)nc2N)cc(OCC)c1O	1170 nM

SMILES	XC50
COc1ccc(C(=O)Nc2ccc(Nc3nc(C)cc(N(C)C)n3)cc2)c(OC)c1	868 nM
COc1ccc(N2CCN(c3nc(N)c4cc(OC)c(OC)cc4n3)CC2C)cc1 (stereo unspecified)	1420 nM
O=C(NCC1CCN(CCN2CCc3ccc4c(c3C2)OCO4)CC1)c1ccc(-c2ccc(C(F)(F)F)cc2)cc1	861 nM
COc1cc(C(=O)N2C(c3nccs3)C(C(=O)N(OC)C(C)c3ccccc3)CC2(CC(C)C)C(=O)OC(C)(C)C)ccc1C(C)(C)C (stereo unspecified)	1070 nM
Cn1cnc(-c2ccc3c(c2)CCN(CCC2CCC(NC(=O)/C=C/c4ccc(F)cc4)CC2)CC3)c1 (stereo unspecified)	904 nM
Brc1cnc(NC2=NCCN2)c(Br)c1	335 nM
C[C@H](Cc1ccc(OCCCCCCOc2ccc(C[C@@H](C)NC[C@H](O)c3cccc(Cl)c3)cc2)cc1)NC[C@H](O)c1cccc(Cl)c1	296 nM
COc1cc(-c2ccc(-c3cnc(N)nc3OC)[nH]2)cc(OC)c1OC	729 nM
CC(C)(CNC(=O)C1CCN(CCOc2ccc(F)c(F)c2)CC1)c1nc(-c2ccc(Cl)c(O)c2)c(-c2ccncc2)[nH]1	316 nM
Cc1cc2ccc(CNCCc3ccccc3Br)cc2nc1N	514 nM
c1csc(-c2nc(NCC3CCCO3)ncc2-c2ccsc2)n1 (stereo unspecified)	487 nM
COc1nc2c(N3CCN(CCNCc4ccc5c(n4)NC(=O)CS5)CC3)ccnc2cc1F	713 nM
CCc1ccc(O)c(-c2cc(C(=O)Nc3cccnc3)[nH]n2)c1	689 nM
O=C(Nc1ccc2c(c1)CCN2C1CCN(Cc2cccc3cc[nH]c23)C1)c1ccco1 (stereo unspecified)	1210 nM
CN(C)Cc1c(O)ccc2[nH]c(-c3ccc(OC(F)(F)F)cc3)nc12	727 nM
Cn1c(Nc2cc(C(C)(C)C)on2)nc2cc(Nc3ccnc(Nc4cccc(CS(C)(=O)=O)c4)n3)ccc21	571 nM
CC(C)C[C@@H](/C=N/NC(N)=O)NC(=O)[C@H](CC(C)C)NC(=O)[C@H](CC(C)C)NC(=O)OCc1ccccc1	150 nM
CN(C)CCCOc1ccc(CNCC(C)(C)c2nc(-c3ccc(Cl)c(O)c3)c(-c3ccncc3)[nH]2)cc1	708 nM
COc1ccc2nccc([C@@H](O)CN3CCC(NCc4nc5c([N+](=O)[O-])cccc5[nH]4)CC3)c2c1	705 nM
CC(C)C[C@H](NC(=O)c1cc(-c2ccc(F)cc2)no1)C(=O)O.CC(C)C[C@H](NC(=O)c1conc1-c1ccc(F)cc1)C(=O)O	979 nM
Cc1ccc(O)c(C(=O)c2cc(C(=O)Nc3ccccc3C)c(=O)n(-c3ccccc3C)c2)c1	784 nM
CCCCCCCN(Cc1ccc(OC(C)(C)C(=O)OCC)cc1)C(=O)Nc1ccccc1OCC	1030 nM
CC(C)CN1CCC(COc2ccc3ncn(-c4cc(O[C@H](C)c5ccccc5C(F)(F)F)c(C(N)=O)s4)c3c2)CC1	618 nM
Cc1ccc(Cn2cnc3cc(C(=O)Nc4ccc(-c5ccc(CN(C)C)cc5)cc4)ccc3c2=O)o1	1260 nM
